Measurements: patent US20230057984A1, “NORMALIZATION OF CULTURE OF CORNEAL ENDOTHELIAL CELLS” (KYOTO PREFECTURAL PUBLIC UNIVERSITY CORPORATION, priority 2011, published 2023)

Key:
[1] = system: Human corneal endothelial cells; experiment: Culture of human corneal endothelial cells with SB431542, cell form (Example 5); assay type: cell-based; conditions: HCEC, base culture medium with SB431542 1 μmol/L; SB431542-free cells transformed in a fibroblastic manner, multi-layered
Protocol: • Cynomolgus monkey corneal endothelial cells (MCEC; source of supply and culturing method): the MCECs were cultured by the improved-type protocol described previously [Koizumi N, et al. (2007) Invest Ophthalmol Vis Sci 48: 4519-4526], [Li W, et al. (2007) Invest Ophthalmol Vis Sci 48: 614-620]. Briefly speaking, eyeballs of cynomolgus monkeys, which were humanely killed for another purpose, were purchased (Nissei Bilis Co., Ltd., Ohtsu, Japan and Keari Co., Ltd., Wakayama, Japan) (the method is described above). The Descemet's membrane including corneal endothelial cells were exfoliated, and the corneal endothelial cells were mechanically exfoliated together with basement membranes, followed by treatment using dispase or collagenase (ROCHE catalog number: 10 103 586 001) and then primary culture. Typically, treatment was performed using 1 mg/mL collagenase A (Roche Applied Science, Penzberg, Germany) at 37° C. for 2 hours. For the culture medium, DMEM (INVITROGEN catalog number 12320) was used with 10% FBS (BIOWEST, catalog number: S1820-500) and 2 ng/ml basic FGF (INVITROGEN, catalog number: 13256-029) added thereto. […] In addition, after the cells were fixed, immunostaining was performed using ZO-1, Na^+/K^+-ATPase as a function-associated marker, followed by observation through a fluorescence microscope. […]

[2] = system: Human corneal endothelial cells; experiment: Quantitative PCR of collagen type 1 and fibronectin in HCEC; assay type: cell-based; conditions: SB431542 1 μM, normalized with GAPDH, relative to control
Protocol: Amplified DNA fragments were electrophoresed with 1.5% agarose gel (Nacalai Tesque, catalog number:01149-76), and detected by staining with ethidium bromide (Nacalai Tesque, catalog number: 14603-51). • Quantitative PCR was performed using the following TaqMan (registered trademark) (Invitrogen) primers. collagen type 1: Hs00164004_m1; fibronectin: Hs01549976_m1; GAPDH: Hs00266705_g1. The PCR was performed using a StepOne™ (Applied Biosystems) real-time PCR system. The GAPDH was used as an internal standard.

HCEC = experiment: Consecutive treatments of cultured HCEC over several passages, observation of harmful effects; conditions: even after several passages
[3] = system: Human corneal endothelial cells; experiment: ELISA of type 1 collagen in culture supernatant of HCEC; assay type: cell-based; conditions: HCEC with vs without SB431542, n=5, P<0.05
Protocol: Corneal endothelial cells were mechanically exfoliated together with basement membranes from research corneas purchased from the Seattle bank, followed by exfoliating from the basement membranes using collagenase for collection, and then primary culturing. […] The collected human corneal endothelial cells were divided into two, and one group of them was cultured with the base culture medium as a control, and the other group of them was cultured with a base culture medium with SB431542 (TOCRIS, catalog number: 1614) added thereto such that the final concentration would be 1 μmol/L. • Enzyme-linked immunosorbent assay (ELISA): type 1 collagen in a culture supernatant of HCEC was assayed by using a ELISA kits for Collagen Type I Alpha 2 (COL1a2) (Uscn Life Science Inc., Wuhan, China) in accordance with the instruction manual of the manufacturer. Culture supernatants derived from HCEC, cultured together with SB431542 or without SB431542, were used for respective groups (n=5).

harmful effects with regard to the forms or functions (HCEC): not seen any clear, harmful effects
SMILES: NC(=O)c1ccc(-c2nc(-c3ccc4c(c3)OCO4)c(-c3ccccn3)[nH]2)cc1 [SB431542]
cell form [1]: a layer of cells with a small difference in size of a polygonal shape
expression of collagen type 1 at mRNA level (quantitative PCR) [2]: significantly decreased
expression of fibronectin at mRNA level (quantitative PCR) [2]: significantly decreased
secretion of collagen type 1 to the cell supernatant (ELISA) [3]: significantly down-regulated
